Test results published in patent publication US6479509B1, “Method of promoting smoking cessation” (priority 2000, dated 2002).
Marks after values point to notes of the source that are not given here.

Tests used:
[1] = system: nicotine-induced seizures; assay: Nicotine-induced seizure activity; format: in vivo, mice
Procedure: Seizure Activity. Following s.c. injection of nicotine at a dose of 9 mg/kg, each animal was placed in a 30 cm×30 cm Plexiglass cage and observed for 5 min. […] This amount of time was chosen because seizures occur very quickly after nicotine administration. Results are expressed as percentage seizure.

[2] = system: nicotine-induced hypothermia; assay: Blockade of nicotine-induced hypothermia (body temperature); format: in vivo, mice; conditions: @ 32 μmol/hg
Procedure: Body Temperature. Rectal temperature was measured by a thermistor probe (inserted 24 mm) and digital thermometer (Yellow Springs Instrument Co., Yellow Springs, Ohio). Readings were taken just before and at 30 min after the s.c. injection of nicotine. For antagonism studies, mice were pretreated with either saline or various drugs 10 min before nicotine. The difference in rectal temperature before and after treatment was calculated for each mouse. The ambient temperature of the laboratory varied from 21 to 24° C. from day to day.
(§1) Data were analyzed statistically by an analysis of variance followed by the Fisher's P least-significant difference multiple comparison test. The null hypothesis was rejected at the […].

[3] = system: discriminative stimulus effect of nicotine; assay: Nicotine drug discrimination; format: in vivo; conditions: rats
Procedure: Rats were individually housed in a temperature-controlled environment and were maintained on a diet (Agway Rodent Chow) that restricted their body weight to approximately 85% of their free feeding weight. Water was available ad libitum in the home cages. A two-lever operant drug nation paradigm (VI 15) was carried out in eight operant chambers (4 Lafayette model 80001 and 4 BRS/LVIE model s 002). Reinforcement was a Bioserv 45-mg precision dustless pellet. Data were collected automatically by two Commodore 64 microcomputers.
Rats were placed in an operant chamber 5 min after injections. […] Animals were required to meet a criterion of three successive days of 80% or greater correct-lever responding before testing was initiated. Injections were given 5 min before placing the animal in the operant chamber. The schedule of injections, was determined using a Latin Square design. Dose-response curves were determined for nicotine 5 min after s.c. injections.

[4] = system: nicotine-induced antinociception; assay: Blockade of nicotine-induced antinociception, tail-flick test; format: in vivo, mice; conditions: blocking antinociception of nicotine 2.5 mg/kg, mice, systemic administration
Procedure: Anitinociception. The tail-flick method of D'Amour and Smith (1941) as modified by Dewey et al. (1970) was used. A control response (2-4 s) was determined for each animal before treatment, and a test latency was determined after drug administration. To minimize tissue damage, a maximum latency of 10 s was imposed. Antinociceptive response was calculated as percent maximum possible effect (% MPE), where % MPE=[((test-control)/(10-control))×100], Groups of 8 to 12 animals were used for each dose and for each treatment. Mice were tested 5 min after nicotine administration for the dose-response evaluation. Antagonism studies were carried out by pretreating the mice s.c. with either saline or various drugs at different times before nicotine. The animals were tested 5 min after administration of nicotine.
as §1

[5] = system: nicotine-induced motor impairment; assay: Blockade of nicotine-induced motor impairment, rotarod test; format: in vivo, mice; conditions: without nicotine
Procedure: Motor Coordination. To measure motor coordination, a wooden rod 6 cm in diameter was partitioned into three compartments by circular metal discs (28 cm in diameter) at 18-cm intervals. The rod was attached to a motor and rotated at a rate of 4 rpm. Naive mice were trained until they could remain on the rotarod for 3 min. […] This training took place no longer than 15 min before the s.c. administration of nicotine. Twenty minutes after the injection, mice were placed on the rotarod for 5 min. The amount of time the animals remained on the rotarod was recorded and percent impairment was calculated as % Impairment=[(]-(test time in s/300))×100]. An impairment value of 0% corresponds to the subjects that remained on the rotarod for 5 min (300 s), whereas 100% impairment corresponds to subjects, that fell off the rotarod immediately.
as §1

With COC(=O)[C@H]1[C@@H](OC(=O)c2ccccc2)C[C@@H]2CC[C@H]1N2C [Cocaine] the “% Seizures (Mean)” value ([1]; cocaine 10 mg/kg pretreatment, nicotine 9 mg/kg) was 83.3%, the “% Seizures (Mean)” value ([1]; cocaine 20 mg/kg pretreatment, nicotine 9 mg/kg, P < .05 from saline/nicotine) was 50^c % and the “% Seizures (Mean)” value ([1]; cocaine 30 mg/kg pretreatment, nicotine 9 mg/kg, P < .05 from saline/nicotine) was 16^c %. For the same compound, the “AD50, antagonism of nicotine-induced seizures” value ([1]; mice, estimated) was 50 µmol/kg, the “% Seizures (Mean)” value ([1]; saline pretreatment, cocaine 20 mg/kg challenge) was 0% and the “Hypothermia, % blockade @ dose” value [2] was 20% @ 32. For the same compound, the “Drug discrimination % Test (Mean ± SE)” value ([3]; cocaine 10 mg/kg pretreatment, nicotine 0.4 mg/kg) was 69 ± 8%, the “Drug discrimination % Test (Mean ± SE)” value ([3]; saline pretreatment, cocaine 10 mg/kg) was 17 ± 7% and the “AD50 Tail-Flick” value [4] was 3.2 μmol/hg. For the same compound, the “Performance on the rotarod test, by itself” value [5] was “did not significantly alter performance”.
